Usually AC50 stands for the concentration at which the activity in the assay is half-maximal.

The target in assay [1] is T1, Corticotropin-releasing factor receptor 1 (Homo sapiens, UniProt P34998).
T1 sequence (P34998 whole entry): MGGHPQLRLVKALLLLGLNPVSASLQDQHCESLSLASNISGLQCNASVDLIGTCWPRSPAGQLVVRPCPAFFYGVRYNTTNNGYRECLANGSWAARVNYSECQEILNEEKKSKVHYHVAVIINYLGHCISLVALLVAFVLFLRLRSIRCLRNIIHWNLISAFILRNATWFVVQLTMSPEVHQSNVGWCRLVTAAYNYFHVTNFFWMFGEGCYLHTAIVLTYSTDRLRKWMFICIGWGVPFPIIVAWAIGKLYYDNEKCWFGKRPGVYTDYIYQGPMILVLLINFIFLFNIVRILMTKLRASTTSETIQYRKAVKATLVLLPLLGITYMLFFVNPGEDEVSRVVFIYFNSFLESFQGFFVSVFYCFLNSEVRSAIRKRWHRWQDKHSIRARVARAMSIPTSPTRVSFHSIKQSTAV

A further assay deals with Estrogen receptor beta (Homo sapiens, UniProt Q92731).
Assay [2] deals with Gamma-aminobutyric acid type B receptor subunit 1 (Homo sapiens, UniProt Q9UBS5).
In assay [3] the target is Voltage-dependent L-type calcium channel subunit alpha-1C (Homo sapiens, UniProt Q13936). In kind it is functional, cell-based.
For assay [4], the target named is T2, Peroxisome proliferator-activated receptor gamma (Homo sapiens, UniProt P37231).
T2 sequence (P37231 whole entry): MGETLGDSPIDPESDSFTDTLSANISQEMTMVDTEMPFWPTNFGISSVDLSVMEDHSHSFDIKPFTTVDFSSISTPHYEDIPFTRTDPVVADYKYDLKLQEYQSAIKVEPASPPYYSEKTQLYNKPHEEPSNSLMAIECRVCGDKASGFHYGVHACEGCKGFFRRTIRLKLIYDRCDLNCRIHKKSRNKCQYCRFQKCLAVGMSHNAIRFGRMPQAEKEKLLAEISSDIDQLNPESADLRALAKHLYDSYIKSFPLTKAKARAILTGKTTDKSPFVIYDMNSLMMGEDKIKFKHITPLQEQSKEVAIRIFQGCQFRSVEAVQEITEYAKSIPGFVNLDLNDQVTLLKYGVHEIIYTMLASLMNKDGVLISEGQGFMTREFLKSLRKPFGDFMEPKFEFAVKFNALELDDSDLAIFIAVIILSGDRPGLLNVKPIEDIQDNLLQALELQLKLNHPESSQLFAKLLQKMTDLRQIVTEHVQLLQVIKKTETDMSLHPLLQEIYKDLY
In kind it is functional.

In assay [5] the target is T3, Muscarinic acetylcholine receptor M5 (Homo sapiens, UniProt P08912).
T3 sequence (P08912 whole entry): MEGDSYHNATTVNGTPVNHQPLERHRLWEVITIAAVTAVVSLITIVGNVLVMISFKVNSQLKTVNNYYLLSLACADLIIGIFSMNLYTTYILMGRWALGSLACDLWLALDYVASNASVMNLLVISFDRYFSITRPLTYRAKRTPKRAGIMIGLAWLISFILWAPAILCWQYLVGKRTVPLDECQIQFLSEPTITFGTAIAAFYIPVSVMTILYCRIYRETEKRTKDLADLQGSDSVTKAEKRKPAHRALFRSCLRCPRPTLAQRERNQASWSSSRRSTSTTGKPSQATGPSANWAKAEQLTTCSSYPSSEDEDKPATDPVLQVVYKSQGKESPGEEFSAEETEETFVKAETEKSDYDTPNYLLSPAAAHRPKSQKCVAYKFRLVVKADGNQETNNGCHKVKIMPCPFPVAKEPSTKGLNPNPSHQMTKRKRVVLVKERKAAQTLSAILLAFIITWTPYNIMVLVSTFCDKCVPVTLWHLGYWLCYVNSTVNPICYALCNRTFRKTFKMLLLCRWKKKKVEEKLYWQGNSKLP

Assay [6] deals with T4, Muscarinic acetylcholine receptor M2 (Homo sapiens, UniProt P08172).
T4 sequence (P08172 whole entry): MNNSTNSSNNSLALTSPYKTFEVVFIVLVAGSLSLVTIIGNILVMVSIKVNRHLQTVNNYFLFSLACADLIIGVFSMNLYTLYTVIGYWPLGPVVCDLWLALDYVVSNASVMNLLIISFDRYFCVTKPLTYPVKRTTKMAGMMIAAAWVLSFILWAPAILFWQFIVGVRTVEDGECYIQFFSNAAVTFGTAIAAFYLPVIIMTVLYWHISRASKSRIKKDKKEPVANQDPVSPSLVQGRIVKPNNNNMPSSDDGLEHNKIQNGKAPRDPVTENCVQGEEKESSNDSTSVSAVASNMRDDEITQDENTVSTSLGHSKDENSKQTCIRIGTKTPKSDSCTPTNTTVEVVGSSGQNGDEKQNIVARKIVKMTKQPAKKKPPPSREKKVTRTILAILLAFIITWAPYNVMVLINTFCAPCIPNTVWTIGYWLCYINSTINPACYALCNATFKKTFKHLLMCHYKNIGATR

Assay [7] addresses T5, Type-2 angiotensin II receptor (Homo sapiens, UniProt P50052).
T5 sequence (P50052 whole entry): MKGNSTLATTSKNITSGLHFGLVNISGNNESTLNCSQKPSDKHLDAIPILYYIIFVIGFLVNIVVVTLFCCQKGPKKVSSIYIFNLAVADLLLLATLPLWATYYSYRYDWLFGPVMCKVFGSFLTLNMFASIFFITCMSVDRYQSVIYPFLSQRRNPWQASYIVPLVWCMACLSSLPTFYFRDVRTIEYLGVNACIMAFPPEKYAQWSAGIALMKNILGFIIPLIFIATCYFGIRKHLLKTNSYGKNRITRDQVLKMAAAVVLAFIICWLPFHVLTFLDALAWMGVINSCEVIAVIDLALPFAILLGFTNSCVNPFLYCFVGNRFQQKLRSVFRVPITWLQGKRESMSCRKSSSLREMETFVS
The format is functional.

The next assay addresses D(1A) dopamine receptor (Homo sapiens, UniProt P21728). In kind it is functional, cell-based.
Also: assay procedure not described here.

Chain of Gamma-aminobutyric acid type B receptor subunit 1 (Q9UBS5 whole entry): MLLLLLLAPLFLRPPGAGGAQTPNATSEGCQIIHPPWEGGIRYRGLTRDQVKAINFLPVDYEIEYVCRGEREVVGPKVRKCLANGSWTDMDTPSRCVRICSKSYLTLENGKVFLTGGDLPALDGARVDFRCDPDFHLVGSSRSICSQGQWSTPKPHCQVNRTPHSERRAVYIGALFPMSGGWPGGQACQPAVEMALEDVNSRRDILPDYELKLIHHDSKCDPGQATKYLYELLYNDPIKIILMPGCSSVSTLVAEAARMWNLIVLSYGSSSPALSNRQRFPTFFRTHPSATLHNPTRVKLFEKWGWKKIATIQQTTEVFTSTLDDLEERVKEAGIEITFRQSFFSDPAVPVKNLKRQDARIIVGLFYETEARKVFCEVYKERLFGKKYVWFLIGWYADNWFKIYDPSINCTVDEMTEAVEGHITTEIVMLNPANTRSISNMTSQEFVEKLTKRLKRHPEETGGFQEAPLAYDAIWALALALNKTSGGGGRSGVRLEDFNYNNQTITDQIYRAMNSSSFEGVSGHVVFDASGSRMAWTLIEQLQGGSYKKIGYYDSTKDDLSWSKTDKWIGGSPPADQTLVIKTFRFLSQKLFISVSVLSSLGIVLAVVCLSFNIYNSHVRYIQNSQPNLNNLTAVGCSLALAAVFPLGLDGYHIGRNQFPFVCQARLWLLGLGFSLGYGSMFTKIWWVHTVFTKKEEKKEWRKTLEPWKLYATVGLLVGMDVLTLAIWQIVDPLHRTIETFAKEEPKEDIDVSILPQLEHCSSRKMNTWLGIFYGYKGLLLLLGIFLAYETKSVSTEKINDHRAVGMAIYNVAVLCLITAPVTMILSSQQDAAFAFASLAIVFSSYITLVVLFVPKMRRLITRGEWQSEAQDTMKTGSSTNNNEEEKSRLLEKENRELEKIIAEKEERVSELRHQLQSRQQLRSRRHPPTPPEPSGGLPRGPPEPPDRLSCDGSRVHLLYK
Chain of Estrogen receptor beta (Q92731 whole entry): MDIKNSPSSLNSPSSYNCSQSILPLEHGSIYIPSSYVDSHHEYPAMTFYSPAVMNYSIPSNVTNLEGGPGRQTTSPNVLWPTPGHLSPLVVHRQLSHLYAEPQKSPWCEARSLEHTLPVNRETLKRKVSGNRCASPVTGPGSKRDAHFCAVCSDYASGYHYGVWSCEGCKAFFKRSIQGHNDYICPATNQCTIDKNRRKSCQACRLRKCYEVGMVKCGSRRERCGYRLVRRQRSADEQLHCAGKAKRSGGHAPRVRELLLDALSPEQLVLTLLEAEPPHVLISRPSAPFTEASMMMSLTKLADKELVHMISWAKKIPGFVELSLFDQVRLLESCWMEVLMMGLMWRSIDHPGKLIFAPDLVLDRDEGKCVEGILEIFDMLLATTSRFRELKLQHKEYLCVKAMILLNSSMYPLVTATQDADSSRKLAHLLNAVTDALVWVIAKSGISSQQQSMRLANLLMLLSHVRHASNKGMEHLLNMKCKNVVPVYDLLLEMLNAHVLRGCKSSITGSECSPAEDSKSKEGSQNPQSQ
Chain of Voltage-dependent L-type calcium channel subunit alpha-1C (Q13936 whole entry): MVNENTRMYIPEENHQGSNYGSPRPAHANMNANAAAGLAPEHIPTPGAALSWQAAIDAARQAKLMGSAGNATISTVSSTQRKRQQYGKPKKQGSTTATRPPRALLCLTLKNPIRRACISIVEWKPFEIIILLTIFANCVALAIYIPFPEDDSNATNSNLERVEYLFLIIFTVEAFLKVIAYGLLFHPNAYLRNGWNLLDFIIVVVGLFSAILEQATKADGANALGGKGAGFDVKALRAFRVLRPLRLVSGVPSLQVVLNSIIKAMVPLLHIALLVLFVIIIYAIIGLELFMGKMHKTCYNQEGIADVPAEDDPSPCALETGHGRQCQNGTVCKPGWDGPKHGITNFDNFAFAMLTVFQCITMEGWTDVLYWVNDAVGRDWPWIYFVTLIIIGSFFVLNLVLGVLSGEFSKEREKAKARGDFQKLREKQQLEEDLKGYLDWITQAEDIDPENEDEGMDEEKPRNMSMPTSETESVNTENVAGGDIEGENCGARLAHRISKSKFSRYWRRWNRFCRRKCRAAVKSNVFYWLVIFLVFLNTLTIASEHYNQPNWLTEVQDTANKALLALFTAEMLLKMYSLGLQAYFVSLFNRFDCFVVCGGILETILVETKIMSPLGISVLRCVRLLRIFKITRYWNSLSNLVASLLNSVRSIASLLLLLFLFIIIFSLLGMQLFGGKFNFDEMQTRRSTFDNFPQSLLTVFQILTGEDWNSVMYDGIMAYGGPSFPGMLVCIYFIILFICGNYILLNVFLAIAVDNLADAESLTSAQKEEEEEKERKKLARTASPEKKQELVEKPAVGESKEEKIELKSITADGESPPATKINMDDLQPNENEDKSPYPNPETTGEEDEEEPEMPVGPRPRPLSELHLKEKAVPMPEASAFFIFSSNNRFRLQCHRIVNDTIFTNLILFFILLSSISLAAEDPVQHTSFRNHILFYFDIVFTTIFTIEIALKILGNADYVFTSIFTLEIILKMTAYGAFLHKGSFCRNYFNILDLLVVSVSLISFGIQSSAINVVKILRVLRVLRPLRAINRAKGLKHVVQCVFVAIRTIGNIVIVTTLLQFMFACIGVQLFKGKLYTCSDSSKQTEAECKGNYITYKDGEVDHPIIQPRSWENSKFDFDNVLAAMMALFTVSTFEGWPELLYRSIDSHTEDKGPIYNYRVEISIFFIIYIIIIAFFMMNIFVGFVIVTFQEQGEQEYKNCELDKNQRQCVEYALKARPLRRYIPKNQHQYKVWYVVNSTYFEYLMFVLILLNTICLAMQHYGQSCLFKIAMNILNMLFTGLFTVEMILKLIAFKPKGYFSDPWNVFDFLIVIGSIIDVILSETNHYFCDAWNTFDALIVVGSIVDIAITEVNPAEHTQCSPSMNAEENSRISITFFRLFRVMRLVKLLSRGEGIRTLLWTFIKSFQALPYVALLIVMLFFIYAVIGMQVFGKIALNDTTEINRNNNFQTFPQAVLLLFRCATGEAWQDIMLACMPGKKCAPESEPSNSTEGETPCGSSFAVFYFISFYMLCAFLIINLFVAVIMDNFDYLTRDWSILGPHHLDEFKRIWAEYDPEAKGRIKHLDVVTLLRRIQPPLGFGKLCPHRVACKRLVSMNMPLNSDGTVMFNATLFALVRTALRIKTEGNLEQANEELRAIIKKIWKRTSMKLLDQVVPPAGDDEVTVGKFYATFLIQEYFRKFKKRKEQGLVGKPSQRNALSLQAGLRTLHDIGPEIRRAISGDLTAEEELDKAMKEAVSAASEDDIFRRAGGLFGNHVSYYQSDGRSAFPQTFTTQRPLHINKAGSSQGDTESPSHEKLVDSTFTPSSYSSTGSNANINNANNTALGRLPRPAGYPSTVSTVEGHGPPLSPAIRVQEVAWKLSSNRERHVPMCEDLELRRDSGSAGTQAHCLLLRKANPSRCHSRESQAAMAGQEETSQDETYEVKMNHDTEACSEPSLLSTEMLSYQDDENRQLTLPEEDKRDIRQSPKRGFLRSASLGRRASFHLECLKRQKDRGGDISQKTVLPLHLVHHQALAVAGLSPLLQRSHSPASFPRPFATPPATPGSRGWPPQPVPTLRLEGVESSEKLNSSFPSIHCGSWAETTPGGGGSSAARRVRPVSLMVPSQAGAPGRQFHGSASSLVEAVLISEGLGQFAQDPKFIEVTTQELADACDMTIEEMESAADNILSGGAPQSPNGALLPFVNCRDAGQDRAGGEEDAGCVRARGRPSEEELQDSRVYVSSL
Chain of D(1A) dopamine receptor (P21728 whole entry): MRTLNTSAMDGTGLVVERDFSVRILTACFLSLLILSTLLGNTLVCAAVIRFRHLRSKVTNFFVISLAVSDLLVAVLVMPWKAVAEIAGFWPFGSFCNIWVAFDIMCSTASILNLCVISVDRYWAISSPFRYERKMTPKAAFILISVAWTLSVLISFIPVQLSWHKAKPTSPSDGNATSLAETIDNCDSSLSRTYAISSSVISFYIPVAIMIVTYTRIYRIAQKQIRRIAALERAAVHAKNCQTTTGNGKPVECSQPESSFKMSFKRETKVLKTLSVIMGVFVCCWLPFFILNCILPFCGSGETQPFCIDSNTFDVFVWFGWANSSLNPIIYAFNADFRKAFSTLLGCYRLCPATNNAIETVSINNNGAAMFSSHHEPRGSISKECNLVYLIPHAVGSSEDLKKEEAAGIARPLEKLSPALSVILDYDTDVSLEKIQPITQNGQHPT

Consider `CNS(=O)(=O)Cc1ccc2[nH]cc(CCN(C)C)c2c1`, for which the AC50 in assay [1] is greater than 30 µM; at Estrogen receptor beta, greater than 30 µM; in [2], greater than 10 µM.

`CC(=O)O[C@H]1CC[C@@]2(C)C(=CC[C@@H]3[C@@H]2CC[C@]2(C)C(c4cccnc4)=CC[C@@H]32)C1` [ABIRATERONE ACETATE]: the AC50 in assay [3] and in [4] was greater than 30 µM throughout.

With `COC(=O)C1=C(C)NC(C)=C(C(=O)OC2CCCN(Cc3ccccc3)C2)C1c1cccc([N+](=O)[O-])c1` (stereo unspecified) [BENIDIPINE], in assay [3], the AC50 was found to be 1.9 µM.

On to `CO/N=C(\C(=O)N[C@@H]1C(=O)N2C(C(=O)O)=C(CSc3nnnn3C)CS[C@H]12)c1csc(N)n1` [CEFMENOXIME], for which the AC50 in [4] was greater than 30 µM.

As for `CCN1CCN(C(=O)N[C@@H](C(=O)N[C@@H]2C(=O)N3C(C(=O)O)=C(CSc4nnnn4C)CS[C@H]23)c2ccc(O)cc2)C(=O)C1=O` [CEFOPERAZONE], the AC50 in assay [4] was greater than 30 µM.

`COc1ccc2c3c1O[C@H]1[C@@H](O)C=C[C@H]4[C@@H](C2)N(C)CC[C@@]341` [CODEINE]: the AC50 is greater than 10 µM in assay [5], greater than 30 µM in [1], greater than 10 µM in assay [2] and greater than 10 µM in assay [6].

With `CCCCc1ncc(/C=C(\Cc2cccs2)C(=O)O)n1Cc1ccc(C(=O)O)cc1` [EPROSARTAN], the AC50 is greater than 100 µM in assay [7]; greater than 10 µM in assay [5]; greater than 30 µM in assay [1]; greater than 10 µM in [2]; greater than 10 µM in assay [6].

For the compound `CCc1c(Cl)c(O)c(Cl)c(O)c1C(=O)O[C@H]1[C@H](O)[C@H](OC)[C@H](OC/C2=C\C=C\C[C@H](O)/C(C)=C/[C@H](CC)[C@@H](O[C@@H]3OC(C)(C)[C@@H](OC(=O)C(C)C)[C@H](O)[C@@H]3O)/C(C)=C/C(C)=C/C[C@@H]([C@@H](C)O)OC2=O)O[C@@H]1C` [FIDAXOMICIN], the AC50 in assay [1] was greater than 30 µM; on Estrogen receptor beta it was greater than 30 µM; in [6] it was greater than 10 µM.

Consider `CC(C)(C)c1cc(C(C)(C)C)c(NC(=O)c2c[nH]c3ccccc3c2=O)cc1O` [IVACAFTOR], for which the AC50 in assay [6] is greater than 10 µM.

As for `CC(C)OC(=O)CCC/C=C\C[C@@H]1[C@@H](CC[C@@H](O)CCc2ccccc2)[C@H](O)C[C@@H]1O` [LATANOPROST], in assay [4], the AC50 was greater than 30 µM.

With `COC(=O)C1=C(C)NC(C)=C(C(=O)OC(C)(C)CN(C)CCC(c2ccccc2)c2ccccc2)C1c1cccc([N+](=O)[O-])c1` (stereo unspecified) [LERCANIDIPINE], the AC50 in assay [3] is greater than 50 µM.

As to `C[C@](N)(Cc1ccc(O)c(O)c1)C(=O)O` [METHYLDOPA], the AC50 in assay [7] is greater than 100 µM.

`CCC1(CC)C(=O)NCC(C)C1=O` (stereo unspecified) [METHYPRYLON] registered an AC50 in [4] greater than 30 µM.

Regarding `CCCc1nc(C(C)(C)O)c(C(=O)OCc2oc(=O)oc2C)n1Cc1ccc(-c2ccccc2-c2nnn[nH]2)cc1` [OLMESARTAN MEDOXOMIL], the AC50 (in assay [1]; at Estrogen receptor beta) was greater than 30 µM each time.

Turning to `N#Cc1ccc([C@H]2CCc3cncn32)c(F)c1` [OSILODROSTAT], the AC50 in assay [5], in assay [2] and in assay [6] was greater than 10 µM throughout.

On to `Clc1ccc(CCCOCCCN2CCCCC2)cc1` [PITOLISANT], for which, in assay [3], the AC50 was 10.4 µM.

In the case of `CN1CCC(=C2c3ccccc3CCc3sccc32)CC1` [PIZOTYLINE], the AC50 stood at 0.65 µM on D(1A) dopamine receptor and 0.059 µM in assay [6].

On to `CCCN(CCC)C(=O)C(CCC(=O)O)NC(=O)c1ccccc1` (stereo unspecified) [PROGLUMIDE], for which the AC50 in [1] was greater than 30 µM; in assay [6], greater than 10 µM.

`CN1C(=O)C(O)N=C(c2ccccc2)c2cc(Cl)ccc21` (stereo unspecified) [TEMAZEPAM]: the values for the AC50 (in assay [1]; at Estrogen receptor beta; in assay [6]) were greater than 30 µM, greater than 30 µM and greater than 10 µM, respectively.

As for `CCN(CC)C(=O)N[C@H]1C[C@@H]2c3cccc4[nH]cc(c34)C[C@H]2N(C)C1` [TERGURIDE], in assay [4], the AC50 was greater than 30 µM.

On to `C/C(O)=C(\C#N)C(=O)Nc1ccc(C(F)(F)F)cc1` [TERIFLUNOMIDE], for which the AC50 in assay [4] is greater than 30 µM.

As to `CC(CC(c1ccccc1)c1ccccc1)NC(C)(C)C` (stereo unspecified) [TERODILINE], the AC50 in assay [3] was greater than 50 µM.

`CN1CCN(CC/C=C2/c3ccccc3Sc3ccc(S(=O)(=O)N(C)C)cc32)CC1` [THIOTHIXENE]: the AC50 in [1] was greater than 30 µM; on D(1A) dopamine receptor it was 0.98 µM; at Estrogen receptor beta it was greater than 30 µM; in [2] it was greater than 10 µM.

In turn, `C=CCN1CCCC1CNC(=O)c1cc(S(N)(=O)=O)cc(OC)c1OC` (stereo unspecified) [VERALIPRIDE] gave an AC50 on D(1A) dopamine receptor greater than 30 µM.

These data come from ChEMBL document CHEMBL5291721, “A preclinical secondary pharmacology resource illuminates target-adverse drug reaction associations of marketed drugs” (Nat Commun, 2023).
